Source: US20150087627A1, “COMBINATION OF KINASE INHIBITORS AND USES THEREOF” (Intellikine LLC, priority 2011, published 2015)

Experiments:
Format in all cases: biochemical
[1] = target: T1, PI3K α (p110α/p85α) (Homo sapiens, UniProt P42336); assay: PI 3-Kinase (human) HTRF assay, PI3K α; settings: read-out: PI3K α IC50
T1 construct: purchased Upstate / Millipore Corporation
Description: (§1) Briefly, the assay is a time resolved FRET assay that indirectly measures PIP3 product formed by the activity of a PI3-K. The kinase reaction is performed in a microtiter plate (e.g., a 384 well microtiter plate). The total reaction volume is approximately 20 ul per well. In the first step, each well receives 2 ul of test compound in 20% dimethylsulphoxide resulting in a 2% DMSO final concentration. […] The plate is sealed and incubated for 15 minutes at room temperature. […] The plate is sealed and incubated for 1 hour at room temperature. The reaction is stopped by adding 5 ul of Stop Solution per well and then 5 ul of Detection Mix is added per well. The plate is sealed, incubated for 1 hour at room temperature, and then read on an appropriate plate reader. Data is analyzed and IC50s are generated using GraphPad Prism 5.

[2] = target: T2, PI3K β (p110β/p85α) (Homo sapiens, UniProt P42338); assay: PI 3-Kinase (human) HTRF assay, PI3K β; settings: read-out: PI3K β IC50
T2 construct: purchased Upstate / Millipore Corporation
T2 sequence (P42338 whole entry): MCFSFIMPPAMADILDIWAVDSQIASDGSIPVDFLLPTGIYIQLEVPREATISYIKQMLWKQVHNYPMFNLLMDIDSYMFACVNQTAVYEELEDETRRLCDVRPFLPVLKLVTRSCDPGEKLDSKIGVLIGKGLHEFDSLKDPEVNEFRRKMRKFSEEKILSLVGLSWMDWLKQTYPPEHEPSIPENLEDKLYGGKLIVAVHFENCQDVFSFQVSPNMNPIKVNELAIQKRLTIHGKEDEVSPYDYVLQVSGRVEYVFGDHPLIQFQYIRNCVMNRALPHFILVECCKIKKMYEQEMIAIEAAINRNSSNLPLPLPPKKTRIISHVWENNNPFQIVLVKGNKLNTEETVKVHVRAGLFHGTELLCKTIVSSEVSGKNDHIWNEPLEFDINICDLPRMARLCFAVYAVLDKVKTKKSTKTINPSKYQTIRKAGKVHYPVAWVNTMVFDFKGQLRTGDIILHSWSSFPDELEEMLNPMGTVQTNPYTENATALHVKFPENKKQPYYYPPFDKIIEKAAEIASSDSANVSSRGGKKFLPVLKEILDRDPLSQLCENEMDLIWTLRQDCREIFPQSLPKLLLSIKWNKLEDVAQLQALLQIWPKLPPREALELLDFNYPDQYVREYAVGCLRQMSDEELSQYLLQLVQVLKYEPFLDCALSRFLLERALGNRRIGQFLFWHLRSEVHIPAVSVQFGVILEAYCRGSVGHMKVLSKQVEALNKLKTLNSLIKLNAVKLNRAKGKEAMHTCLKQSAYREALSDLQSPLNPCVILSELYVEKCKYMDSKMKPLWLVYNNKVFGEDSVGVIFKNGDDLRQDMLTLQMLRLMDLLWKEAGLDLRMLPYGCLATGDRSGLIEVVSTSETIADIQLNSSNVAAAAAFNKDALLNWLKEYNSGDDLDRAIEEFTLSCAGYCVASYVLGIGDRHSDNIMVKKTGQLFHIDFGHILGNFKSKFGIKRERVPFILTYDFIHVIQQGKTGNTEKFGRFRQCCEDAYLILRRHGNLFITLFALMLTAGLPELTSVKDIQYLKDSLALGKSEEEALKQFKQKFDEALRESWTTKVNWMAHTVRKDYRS
T2 sequence (P27986 whole entry partner): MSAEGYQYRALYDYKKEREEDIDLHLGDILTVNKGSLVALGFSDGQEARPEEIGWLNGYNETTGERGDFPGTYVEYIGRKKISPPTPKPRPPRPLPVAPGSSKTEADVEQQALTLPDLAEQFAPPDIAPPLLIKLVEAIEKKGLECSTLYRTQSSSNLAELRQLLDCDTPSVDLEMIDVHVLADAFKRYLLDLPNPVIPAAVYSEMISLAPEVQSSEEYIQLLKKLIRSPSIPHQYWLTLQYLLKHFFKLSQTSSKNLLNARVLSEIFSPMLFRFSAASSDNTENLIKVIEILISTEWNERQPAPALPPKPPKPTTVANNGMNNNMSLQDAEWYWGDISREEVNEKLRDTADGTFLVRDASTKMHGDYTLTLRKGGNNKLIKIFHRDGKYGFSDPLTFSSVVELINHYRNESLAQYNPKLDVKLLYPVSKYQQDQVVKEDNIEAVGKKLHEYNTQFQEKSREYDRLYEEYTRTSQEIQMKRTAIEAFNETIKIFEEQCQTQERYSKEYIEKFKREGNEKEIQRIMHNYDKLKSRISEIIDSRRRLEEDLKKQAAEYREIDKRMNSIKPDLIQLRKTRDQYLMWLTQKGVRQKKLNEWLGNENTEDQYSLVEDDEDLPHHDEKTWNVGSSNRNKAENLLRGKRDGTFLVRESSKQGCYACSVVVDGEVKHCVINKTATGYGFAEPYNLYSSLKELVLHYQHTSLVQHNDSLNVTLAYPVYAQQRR
Description: as §1

[3] = target: T3, PI3K γ (p110γ) (Homo sapiens, UniProt P48736); assay: PI 3-Kinase (human) HTRF assay, PI3K γ; settings: read-out: PI3K γ IC50
T3 construct: purchased Upstate / Millipore Corporation
T3 sequence (P48736 whole entry): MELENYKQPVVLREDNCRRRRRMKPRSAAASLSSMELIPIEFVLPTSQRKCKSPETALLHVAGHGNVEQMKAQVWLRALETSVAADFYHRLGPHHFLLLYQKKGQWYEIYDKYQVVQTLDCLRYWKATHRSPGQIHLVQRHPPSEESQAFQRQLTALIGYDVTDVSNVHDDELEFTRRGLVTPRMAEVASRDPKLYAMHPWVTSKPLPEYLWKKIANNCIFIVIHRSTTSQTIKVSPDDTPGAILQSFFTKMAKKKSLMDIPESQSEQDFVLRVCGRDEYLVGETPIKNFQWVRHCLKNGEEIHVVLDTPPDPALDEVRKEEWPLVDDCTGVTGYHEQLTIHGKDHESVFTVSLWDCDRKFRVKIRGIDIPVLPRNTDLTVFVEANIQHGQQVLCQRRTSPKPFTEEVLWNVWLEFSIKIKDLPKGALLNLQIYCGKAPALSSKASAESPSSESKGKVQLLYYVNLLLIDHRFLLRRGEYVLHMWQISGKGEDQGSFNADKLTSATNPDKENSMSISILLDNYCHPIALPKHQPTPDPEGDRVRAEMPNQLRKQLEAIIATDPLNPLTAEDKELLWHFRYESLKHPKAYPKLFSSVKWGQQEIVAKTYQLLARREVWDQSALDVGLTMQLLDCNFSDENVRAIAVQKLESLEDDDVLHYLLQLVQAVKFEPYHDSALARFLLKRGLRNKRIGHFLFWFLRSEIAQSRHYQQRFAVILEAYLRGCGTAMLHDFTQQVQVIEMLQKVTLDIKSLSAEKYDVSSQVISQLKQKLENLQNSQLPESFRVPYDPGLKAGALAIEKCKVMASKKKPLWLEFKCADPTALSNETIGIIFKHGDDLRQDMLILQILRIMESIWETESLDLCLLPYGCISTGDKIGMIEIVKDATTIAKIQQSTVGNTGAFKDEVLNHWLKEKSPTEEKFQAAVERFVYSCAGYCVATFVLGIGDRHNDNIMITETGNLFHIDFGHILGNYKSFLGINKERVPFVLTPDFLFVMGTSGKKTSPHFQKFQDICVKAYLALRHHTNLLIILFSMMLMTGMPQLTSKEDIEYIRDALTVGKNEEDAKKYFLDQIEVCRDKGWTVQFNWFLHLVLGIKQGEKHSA

[4] = target: T4, PI3K δ (Homo sapiens, UniProt O00329); assay: PI 3-Kinase (human) HTRF assay, PI3K δ; settings: read-out: PI3K δ IC50
T4 construct: purchased Upstate / Millipore Corporation
T4 sequence (O00329 whole entry): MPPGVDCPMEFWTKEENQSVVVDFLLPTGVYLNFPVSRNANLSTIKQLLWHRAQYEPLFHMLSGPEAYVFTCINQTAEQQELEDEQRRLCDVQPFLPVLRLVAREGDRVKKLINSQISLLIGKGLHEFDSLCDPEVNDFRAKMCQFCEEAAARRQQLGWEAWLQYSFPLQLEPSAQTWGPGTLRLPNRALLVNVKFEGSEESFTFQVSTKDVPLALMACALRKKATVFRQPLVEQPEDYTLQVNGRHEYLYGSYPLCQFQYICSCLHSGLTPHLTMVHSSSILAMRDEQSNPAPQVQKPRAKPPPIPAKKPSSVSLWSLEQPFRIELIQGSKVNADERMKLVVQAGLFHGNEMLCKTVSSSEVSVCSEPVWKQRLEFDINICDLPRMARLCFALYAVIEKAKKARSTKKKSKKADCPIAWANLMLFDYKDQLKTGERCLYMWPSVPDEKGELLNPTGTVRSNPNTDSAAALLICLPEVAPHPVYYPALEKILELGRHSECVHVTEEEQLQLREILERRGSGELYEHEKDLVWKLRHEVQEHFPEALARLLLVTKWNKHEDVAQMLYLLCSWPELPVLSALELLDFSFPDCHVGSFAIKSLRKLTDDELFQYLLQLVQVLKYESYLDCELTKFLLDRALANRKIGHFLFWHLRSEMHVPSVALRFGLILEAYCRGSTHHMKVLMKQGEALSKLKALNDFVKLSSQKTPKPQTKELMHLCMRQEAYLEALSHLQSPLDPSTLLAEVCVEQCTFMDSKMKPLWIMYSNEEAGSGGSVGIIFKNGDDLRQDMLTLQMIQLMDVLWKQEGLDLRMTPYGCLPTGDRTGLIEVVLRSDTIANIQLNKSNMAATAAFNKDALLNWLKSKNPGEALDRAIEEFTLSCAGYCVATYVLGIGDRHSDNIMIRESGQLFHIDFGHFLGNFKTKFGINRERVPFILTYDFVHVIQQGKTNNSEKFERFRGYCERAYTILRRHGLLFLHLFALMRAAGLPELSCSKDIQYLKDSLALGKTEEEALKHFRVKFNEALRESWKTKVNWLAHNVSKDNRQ
T4 sequence (P27986 whole entry partner): as the sequence (P27986 whole entry partner) above

T1 sequence (P42336 whole entry): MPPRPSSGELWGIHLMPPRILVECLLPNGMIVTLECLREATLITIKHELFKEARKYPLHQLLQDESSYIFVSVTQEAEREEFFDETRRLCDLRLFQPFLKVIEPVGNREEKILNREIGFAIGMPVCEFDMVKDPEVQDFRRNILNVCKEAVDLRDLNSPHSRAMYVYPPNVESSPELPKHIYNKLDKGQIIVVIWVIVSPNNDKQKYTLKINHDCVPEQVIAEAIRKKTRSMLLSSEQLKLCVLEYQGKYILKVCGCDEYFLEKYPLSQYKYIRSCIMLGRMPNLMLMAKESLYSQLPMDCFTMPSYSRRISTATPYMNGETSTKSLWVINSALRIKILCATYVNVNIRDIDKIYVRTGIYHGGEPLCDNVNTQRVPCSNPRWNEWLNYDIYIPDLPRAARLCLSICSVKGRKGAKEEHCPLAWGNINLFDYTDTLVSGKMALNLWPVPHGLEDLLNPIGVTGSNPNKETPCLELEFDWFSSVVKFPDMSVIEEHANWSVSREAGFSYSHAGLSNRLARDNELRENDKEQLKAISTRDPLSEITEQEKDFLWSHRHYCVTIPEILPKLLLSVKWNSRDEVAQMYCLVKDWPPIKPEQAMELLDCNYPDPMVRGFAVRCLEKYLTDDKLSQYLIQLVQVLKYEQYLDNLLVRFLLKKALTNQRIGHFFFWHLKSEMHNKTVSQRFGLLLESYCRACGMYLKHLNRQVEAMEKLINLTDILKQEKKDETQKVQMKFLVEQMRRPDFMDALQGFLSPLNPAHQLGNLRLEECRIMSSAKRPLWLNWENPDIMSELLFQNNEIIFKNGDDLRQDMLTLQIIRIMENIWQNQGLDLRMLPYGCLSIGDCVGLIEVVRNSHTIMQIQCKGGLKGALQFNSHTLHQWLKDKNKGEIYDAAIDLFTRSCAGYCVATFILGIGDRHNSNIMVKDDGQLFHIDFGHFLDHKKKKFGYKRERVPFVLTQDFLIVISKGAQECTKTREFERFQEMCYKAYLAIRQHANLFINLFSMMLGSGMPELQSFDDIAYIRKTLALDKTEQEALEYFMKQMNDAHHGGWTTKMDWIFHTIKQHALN
T1 sequence (P27986 whole entry partner): as the sequence (P27986 whole entry partner) above

SMILES | IC50 [1] [µM] | IC50 [2] [µM] | IC50 [3] [µM] | IC50 [4] [µM]
Cc1cc(-c2ccc3ncc(C(=O)N4CCOCC4)n3c2)cc2nc(N)oc12 [Compound 364] | < 1 | < 10 | < 1 | > 10
Cc1cc(-c2ccc3ncc(N4CC(N5CCOCC5)C4)nc3c2)cc2nc(N)oc12 [Compound 365] | < 10 | < 10 | < 10 | < 10
CN(C)C1CN(c2cnc3ccc(-c4ccc5oc(N)nc5c4)cc3n2)C1 [Compound 366] | < 0.1 | < 10 | < 10 | > 10
Nc1nc2cc(-c3ccc4ncc(N5CC(N)C5)nc4c3)ccc2o1 [Compound 367] | < 1 | < 1 | < 1 | < 10
Cc1cc(-c2ccc3oc(N)nc3c2)cc2c(C(=O)N3CCCC3)cnn12 [Compound 368] | < 0.1 | < 10 | < 1 | < 1
Cc1c(-c2ccc3ncc(C(=O)N4CCOCC4)n3c2)ccc2oc(N)nc12 [Compound 369] | > 10 | > 10 | > 10 | > 10
Nc1nc2cc(-c3ccc4ncc(N5CC(N6CCOCC6)C5)nc4c3)c(Cl)cc2o1 [Compound 371] | < 1 | < 10 | > 10 | > 10
Cc1c(-c2ccc3oc(N)nc3c2)ccc2ncc(N3CCN[C@@H](C)C3)nc12 [Compound 374] | < 1 | < 0.1 | > 10 | < 10
Nc1nc2cc(-c3ccc4ncc(N5CC[C@H](N6CCOCC6)C5)nc4c3)ccc2o1 [Compound 375] | < 1 | < 10 | < 1 | < 1
CN1CCN(C(=O)c2cnn3ccc(-c4ccc5oc(N)nc5c4)cc23)CC1 [Compound 380] | < 1 | < 10 | < 10 | > 10
Cc1c(-c2ccc3oc(N)nc3c2)ccc2ncc(N3CC(N4CCOCC4)C3)nc12 [Compound 383] | < 1 | > 10 | > 10 | > 10
CN1CCC(c2cnc3ccc(-c4ccc5oc(N)nc5c4)cc3n2)CC1 [Compound 385] | < 0.1 | < 10 | > 10 | > 10
Nc1nc2cc(-c3ccc4ncc(N5CCNCC5=O)nc4c3)ccc2o1 [Compound 389] | < 1 | > 10 | < 10 | > 10
CCN1CCN(c2cnc3ccc(-c4ccc5oc(N)nc5c4)cc3n2)C(=O)C1 [Compound 391] | < 10 | > 10 | > 10 | > 10
CC(C)N1CCN(c2cnc3ccc(-c4ccc5oc(N)nc5c4)cc3n2)C(=O)C1 [Compound 392] | > 10 | > 10 | > 10 | > 10
Nc1nc2cc(-c3ccc4ncc(N5CCN(CC6CC6)CC5=O)nc4c3)ccc2o1 [Compound 393] | < 10 | > 10 | > 10 | > 10
Nc1nc2cc(-c3ccc4ncc(N5CCn6cncc6C5)nc4c3)ccc2o1 [Compound 394] | < 0.1 | < 0.1 | < 0.1 | < 1
Nc1nc2cc(-c3ccc4ncc(N5CCN(CC(F)(F)F)CC5)nc4c3)ccc2o1 [Compound 395] | < 0.1 | > 10 | < 0.1 | > 10
C[C@H]1CN(c2cnc3ccc(-c4ccc5oc(N)nc5c4)cc3c2)CCN1 [Compound 396] | < 0.1 | < 0.1 | < 10 | > 10
Cc1cc(-c2ccc3oc(N)nc3c2)cc2c(-c3ccncc3)cnn12 [Compound 397] | < 0.1 | < 1 | < 0.1 | < 1
Nc1nc2cc(-c3ccn4ncc(C(=O)N5CCC(N6CCOCC6)CC5)c4c3)ccc2o1 [Compound 398] | < 1 | < 10 | < 10 | < 10
C[C@H]1CN(c2cnc3scc(-c4ccc5oc(N)nc5c4)c3c2)CCN1 [Compound 399] | > 10 | > 10 | > 10 | > 10
CC(=O)Nc1cc2ccc(-c3cc(F)c4oc(N)nc4c3)cn2n1 [Compound 401] | > 10 | > 10 | < 10 | > 10
C[C@H]1CN(c2nc3cc(-c4ccc5oc(N)nc5c4)ccc3nc2N)CCN1 [Compound 403] | < 10 | > 10 | > 10 | > 10
O=C(c1cnc2ccc(-c3ccc4oc(Nc5ccccc5)nc4c3)cn12)N1CCOCC1 [Compound 407] | > 10 | < 10 | > 10 | > 10

SMILES | IC50 [1] [µM] | IC50 [2] [µM] | IC50 [3] [µM] | IC50 [4] [µM]
CN1CCC(Nc2nc3cc(-c4ccc5ncc(C(=O)N6CCOCC6)n5c4)ccc3o2)CC1 [Compound 408] | > 10 | > 10 | > 10 | > 10
O=C(c1cnc2ccc(-c3ccc4oc(NC5CC5)nc4c3)cn12)N1CCOCC1 [Compound 409] | < 10 | > 10 | > 10 | > 10
Nc1ncc(-c2ccc3ncc(C(=O)N4CCOCC4)n3c2)cc1C(F)(F)F [Compound 410] | < 10 | > 10 | > 10 | > 10
CC(Oc1nc(-c2ccc3ncc(C(=O)N4CCOCC4)n3c2)cnc1N)C(F)(F)F (centres unmarked) [Compound 411] | < 0.1 | < 10 | < 1 | < 10
Nc1nc2nc(-c3ccc4ncc(C(=O)N5CCOCC5)n4c3)ccc2o1 [Compound 412] | < 10 | > 10 | > 10 | > 10
Nc1nc2cc(-c3ccc4ncc(N5CCNC(C(F)F)C5)nc4c3)ccc2o1 (centres unmarked) [Compound 413] | < 0.1 | < 1 | < 1 | < 10
COc1ncc(-c2ccc3ncc(C(=O)N4CCOCC4)n3c2)cc1NS(C)(=O)=O [Compound 416] | < 0.1 | < 10 | < 1 | < 10
COc1ncc(-c2ccc3ncc(C(=O)N4CCOCC4)n3c2)cc1NS(=O)(=O)c1ccccc1 [Compound 420] | < 0.1 | > 10 | < 1 | < 1
COc1ncc(-c2ccc3ncc(C(=O)N4CCOCC4)n3c2)cc1NS(=O)(=O)c1ccc(F)cc1 [Compound 421] | < 0.1 | < 1 | < 0.1 | < 0.1
COc1ncc(-c2ccc3ncc(C(=O)N4CCOCC4)n3c2)cc1NS(=O)(=O)c1ccccc1F [Compound 422] | < 0.1 | < 10 | < 0.1 | < 1
O=C(c1cnc2ccc(-c3cncc(NS(=O)(=O)c4ccccc4)c3)cn12)N1CCOCC1 [Compound 424] | < 1 | > 10 | < 1 | < 10
O=C(c1cnc2ccc(-c3cncc(NS(=O)(=O)c4ccc(F)cc4F)c3)cn12)N1CCOCC1 [Compound 425] | < 0.1 | > 10 | < 0.1 | < 1
CC(=O)n1nc(N)c2ccc(-c3ccc4oc(N)nc4c3)cc21 [Compound 426] | > 10 | > 10 | > 10 | > 10
Nc1nc2cc(-c3ccc4c(N)n[nH]c4c3)ccc2o1 [Compound 428] | < 10 | < 10 | < 1 | > 10
Nc1nc2cc(-c3cc(F)c4oc(N)nc4c3)ccc2o1 [Compound 432] | < 10 | < 1 | < 0.1 | > 10
CC(=O)Nc1nc2cc(-c3cc(F)c4oc(N)nc4c3)ccc2s1 [Compound 435] | < 10 | < 10 | < 0.1 | > 10
Nc1nc2cc(-c3ccc4sc(N)nc4c3)cc(F)c2o1 [Compound 437] | < 10 | < 1 | < 1 | > 10
Nc1nc2ccc(-c3cc(F)c4ncc(C(=O)N5CCOCC5)n4c3)cc2o1 [Compound 439] | < 10 | > 10 | > 10 | > 10
CNS(=O)(=O)c1cccc(-c2ccc3ncc(C(=O)N4CCOCC4)n3c2)c1 [Compound 442] | > 10 | > 10 | > 10 | > 10
CS(=O)(=O)Nc1cccc(-c2ccc3ncc(C(=O)N4CCOCC4)n3c2)c1 [Compound 443] | > 10 | > 10 | > 10 | > 10
CN1CCN(n2cnc3ccc(-c4ccc5oc(N)nc5c4)cc3c2=O)CC1 [Compound 446] | < 1 | > 10 | > 10 | > 10
Cc1cc(-c2ccc3oc(N)nc3c2)cn2c(C(=O)N3CCOCC3)cnc12 [Compound 448] | < 1 | > 10 | < 10 | > 10
Cc1cc(-c2ccc3nc(N)oc3c2)cn2c(C(=O)N3CCOCC3)cnc12 [Compound 449] | < 1 | < 1 | < 0.1 | > 10
CNS(=O)(=O)c1cncc(-c2ccc3ncc(C(=O)N4CCOCC4)n3c2)c1 [Compound 450] | < 10 | > 10 | > 10 | > 10
O=C(c1cnc2ccc(-c3cccc(NS(=O)(=O)c4ccccc4)c3)cn12)N1CCOCC1 [Compound 453] | < 10 | > 10 | < 10 | > 10
